Results reported in PubChem BioAssay (NCI).
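These data come from cells grown in 96-well plates and exposed to compound for 48 hours at five concentrations. The concentration for 50% growth inhibition is given as GI50. TGI marks complete inhibition of growth.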

Tests used:
Experiment in all cases: inhibition of tumour cell growth, NCI panel, 48 h
HT29 colon = system: HT29 colon
MDA-MB-231 breast = system: MDA-MB-231 breast
UACC-62 melanoma = system: UACC-62 melanoma
SF-268 CNS = system: SF-268 CNS
BT-549 breast = system: BT-549 breast
SR leukemia = system: SR leukemia
NCI/ADR-RES ovarian = system: NCI/ADR-RES ovarian
PC-3 prostate = system: PC-3 prostate
SK-MEL-2 melanoma = system: SK-MEL-2 melanoma
NCI-H522 lung = system: NCI-H522 lung
SK-MEL-5 melanoma = system: SK-MEL-5 melanoma
HCT-116 colon = system: HCT-116 colon
NCI-H460 lung = system: NCI-H460 lung
T-47D breast = system: T-47D breast
COLO 205 colon = system: COLO 205 colon
ACHN renal = system: ACHN renal
CAKI-1 renal = system: CAKI-1 renal
LOX IMVI melanoma = system: LOX IMVI melanoma
UO-31 renal = system: UO-31 renal
SNB-19 CNS = system: SNB-19 CNS
M14 melanoma = system: M14 melanoma
TK-10 renal = system: TK-10 renal
UACC-257 melanoma = system: UACC-257 melanoma
A498 renal = system: A498 renal
RXF 393 renal = system: RXF 393 renal
CCRF-CEM leukemia = system: CCRF-CEM leukemia
SF-295 CNS = system: SF-295 CNS
MDA-MB-435 = system: MDA-MB-435

## COc1ccc(C2C(C#N)=C(N)Oc3c2sc2ccc(C)cc32)cc1 (stereo unspecified)
HT29 colon
  GI50: 3.14 µM
  TGI: 9.79 µM
MDA-MB-231 breast
  GI50: 9.6 µM
  TGI: 86.7 µM
UACC-62 melanoma
  GI50: 3.26 µM
  TGI: 49.9 µM
SF-268 CNS
  GI50: 5.24 µM
  TGI: > 100 µM
BT-549 breast
  GI50: 2.7 µM
  TGI: 7.68 µM
SR leukemia
  GI50: 2.42 µM
  TGI: > 100 µM
NCI/ADR-RES ovarian
  GI50: 3.34 µM
  TGI: > 100 µM
PC-3 prostate
  GI50: 3.46 µM
  TGI: > 100 µM
SK-MEL-2 melanoma
  GI50: 2.2 µM
  TGI: 7.49 µM
NCI-H522 lung
  GI50: 1.24 µM
  TGI: 4.48 µM
SK-MEL-5 melanoma
  GI50: 10.7 µM
  TGI: > 100 µM
HCT-116 colon
  GI50: 3.68 µM
  TGI: 83.9 µM
NCI-H460 lung
  GI50: 3.41 µM
  TGI: 18.3 µM
T-47D breast
  GI50: 3.13 µM
  TGI: > 100 µM
COLO 205 colon
  GI50: 3.7 µM
  TGI: > 100 µM
ACHN renal
  GI50: 6.44 µM
  TGI: > 100 µM
CAKI-1 renal
  GI50: 3.52 µM
  TGI: 56.4 µM
LOX IMVI melanoma
  GI50: 5.92 µM
  TGI: > 100 µM
UO-31 renal
  GI50: 3.56 µM
  TGI: > 100 µM
SNB-19 CNS
  GI50: 6.01 µM
  TGI: 86.7 µM
M14 melanoma
  GI50: 2.84 µM
  TGI: 14.6 µM
TK-10 renal
  GI50: 23 µM
  TGI: > 100 µM
UACC-257 melanoma
  GI50: 4.03 µM
  TGI: > 100 µM
A498 renal
  GI50: 47 µM
  TGI: > 100 µM
RXF 393 renal
  GI50: 2.64 µM
  TGI: 9.98 µM
CCRF-CEM leukemia
  GI50: 3.78 µM
  TGI: > 100 µM
SF-295 CNS
  GI50: 3.93 µM
  TGI: 28.6 µM
MDA-MB-435
  GI50: 0.568 µM
  TGI: 2.17 µM
